Data: article PMC3111596 (Biochemistry, 2011)

Target: N-terminal truncated LSD1 (171–852 aa) (Homo sapiens, UniProt O60341)
Test: LSD1-folate binding by back-scattering interferometry
Details: N-terminal truncated LSD1 vs full-size LSD1

With `Nc1nc2c(c(=O)[nH]1)NC(CNc1ccc(C(=O)N[C@@H](CCC(=O)N[C@@H](CCC(=O)N[C@@H](CCC(=O)N[C@@H](CCC(=O)N[C@@H](CCC(=O)O)C(=O)O)C(=O)O)C(=O)O)C(=O)O)C(=O)O)cc1)CN2` (mixture of isomers) [(6R,S)-THF-Glu5, Tetrahydrofolate pentaglutamate] as the molecule, how does the “Affinity of truncated LSD1 compared with full-size protein” value read?
The value was “same affinity as the full-size protein”.
